According to patent publication US9980943B2, “Methods of treating muscular dystrophy” (BOARD OF REGENTS OF THE NEVADA SYSTEM OF HIGHER EDUCATION, …, priority 2013, dated 2018):

Key:
Assay type in all cases: cell-based, mouse
[1] = test system: α7 integrin (LacZ reporter in α7βgal+/− myoblasts); test: Myoblast α7+/LacZ integrin FDG assay (Burkin assay in myoblasts, 96-well); details: α7+/LacZ myoblasts, 96-well
[2] = test system: α7 integrin (LacZ reporter in α7+/LacZ myotubes); test: Myotube α7 integrin FDG assay (Burkin assay in myotubes, 96-well); details: myotubes
[3] = test system: β-galactosidase in CMV-LacZ C2C12 myoblasts; test: CMV-LacZ secondary screen in C2C12 myoblasts (β-Gal stabilizing assay); details: CMV-LacZ C2C12 myoblasts
Procedure, shortened: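 CMV-LacZ C2C12 line (clonal, FDG-screened); myoblasts/myotubes dosed 0.5–40 μM (0.5, 1, 5, 10, 20, 40 μM); n=2 per point; β-gal stabilization read-out.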

[4] = test system: β-galactosidase in CMV-LacZ C2C12 myotubes; test: CMV-LacZ secondary screen in C2C12 myotubes (β-Gal stabilizing assay); details: C2C12 CMV-LacZ myotubes, fold relative to DMSO
Procedure, shortened: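 A secondary screen identifies compounds that stabilize β-gal independently of the native promoter, using CMV-LacZ C2C12 cells. Curves span 0.5–40 μM at six levels, in duplicate.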

| Structure (SMILES) | Burkin Assay in Myoblasts, signal relative to DMSO ([1]; 0.5 uM) | Burkin Assay in Myoblasts, signal relative to DMSO ([1]; 1 uM) | Burkin Assay in Myoblasts, signal relative to DMSO ([1]; 5 uM) | Burkin Assay in Myoblasts, signal relative to DMSO ([1]; 10 uM) | Burkin Assay in Myoblasts, signal relative to DMSO ([1]; 20 uM) | Burkin Assay in Myoblasts, signal relative to DMSO ([1]; 40 uM) | Burkin Assay in Myotubes, α7 integrin LacZ reporter signal relative to DMSO ([2]; 0.5 uM) | Burkin Assay in Myotubes, α7 integrin LacZ reporter signal relative to DMSO ([2]; 1 uM) | Burkin Assay in Myotubes, α7 integrin LacZ reporter signal relative to DMSO ([2]; 5 uM) | Burkin Assay in Myotubes, α7 integrin LacZ reporter signal relative to DMSO ([2]; 10 uM) | Burkin Assay in Myotubes, α7 integrin LacZ reporter signal relative to DMSO ([2]; 20 uM) | Burkin Assay in Myotubes, α7 integrin LacZ reporter signal relative to DMSO ([2]; 40 uM) | CMV-LACZ in Myoblasts (β-galactosidase activity relative to DMSO) ([3]; 0.5 uM) | CMV-LACZ in Myoblasts (β-galactosidase activity relative to DMSO) ([3]; 1 uM) | CMV-LACZ in Myoblasts (β-galactosidase activity relative to DMSO) ([3]; 5 uM) | CMV-LACZ in Myoblasts (β-galactosidase activity relative to DMSO) ([3]; 10 uM) | CMV-LACZ in Myoblasts (β-galactosidase activity relative to DMSO) ([3]; 20 uM) | CMV-LACZ in Myoblasts (β-galactosidase activity relative to DMSO) ([3]; 40 uM) | CMV-LACZ in Myotubes, signal relative to DMSO ([4]; 0.5 uM) | CMV-LACZ in Myotubes, signal relative to DMSO ([4]; 1 uM) | other results |
| --- | --- | --- | --- | --- | --- | --- | --- | --- | --- | --- | --- | --- | --- | --- | --- | --- | --- | --- | --- | --- | --- |
| Cc1cc([N+](=O)[O-])ccc1NC(=O)C(C)N1CCN(c2ccccn2)CC1 (stereo not drawn) [MLS000764729-01] | 1.088 | 1.0582 | 0.9816 | 0.9694 | 0.9581 | 0.726 | 1.055 | 1.084 | 1.008 | 0.972 | 0.681 | 0.6075 | 0.9865 | 0.9520 | 1.0259 | 0.8880 | 1.1200 | 0.7504 | 1.0358 | 1.1432 | CMV-LACZ in Myotubes, signal relative to DMSO ([4]; 5 uM): 1.0779; CMV-LACZ in Myotubes, signal relative to DMSO ([4]; 10 uM): 0.9634; CMV-LACZ in Myotubes, signal relative to DMSO ([4]; 20 uM): 0.9656; CMV-LACZ in Myotubes, signal relative to DMSO ([4]; 40 uM): 1.1900 |
| c1ccc(-c2nn[nH]n2)nc1 [MLS000767397-01] | 0.8862 | 0.839 | 1.476 | 0.9334 | 1.613 | 0.9754 | 0.9294 | 0.9481 | 1.004 | 1.0608 | 0.9993 | 1.014 | 1.2748 | 1.0646 | 0.9910 | 0.9687 | 0.8485 | 1.1433 | 0.8737 | 1.0368 | CMV-LACZ in Myotubes, signal relative to DMSO ([4]; 5 uM): 0.9425; CMV-LACZ in Myotubes, signal relative to DMSO ([4]; 10 uM): 0.9519; CMV-LACZ in Myotubes, signal relative to DMSO ([4]; 20 uM): 1.0144; CMV-LACZ in Myotubes, signal relative to DMSO ([4]; 40 uM): 1.0067 |
| CCOC(=O)C1=C(CC)Nc2ccccc2N=C1NC(=O)c1ccc(OC)c(S(=O)(=O)N2CCCCC2C)c1 (stereo not drawn) [MLS000776409-01] | 1.1194 | 1.007 | 0.9389 | 0.9838 | 0.5087 | 0.3444 | 0.8925 | 1.029 | 0.882 | 0.9284 | 0.8949 | 0.8056 | 1.1220 | 0.9103 | 0.8929 | 0.9052 | 1.3344 | 0.2105 | 1.0552 | 0.9752 | CMV-LACZ in Myotubes, signal relative to DMSO ([4]; 5 uM): 1.0186; CMV-LACZ in Myotubes, signal relative to DMSO ([4]; 10 uM): 1.1035; CMV-LACZ in Myotubes, signal relative to DMSO ([4]; 20 uM): 1.1040; CMV-LACZ in Myotubes, signal relative to DMSO ([4]; 40 uM): 1.1540 |
